Test results from patent US20190047966A1, “NOVEL COMPOUND AND PHARMACOLOGICALLY ACCEPTABLE SALT THEREOF” (MEIJI SEIKA PHARMA CO., LTD., priority 2016, published 2019).
pKi: −log10 of the molar value. Counter-ions that a name gives are not always drawn.

Experiments:
[1] = molecular target: T1, human histamine H4 receptor (Homo sapiens, UniProt Q9H3N8); experiment: Evaluation of Human H4 Receptor Affinity ([3H]histamine binding); conditions: inhibition constant Ki, CHO-K1 membrane preparation, read-out: Evaluation of H4 Receptor Affinity
T1 construct: purchased PerkinElmer Inc; host or cells: CHO-K1
How it was run: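 Radioligand displacement: compound competes with 8.2 nM [3H]histamine at recombinant human H4 receptor in CHO-K1 membranes (Tris-HCl 50 mM pH 7.4, EDTA 1.25 mM; 25 °C, 90 min), with filter-bound radioactivity counted. IC50 was converted to Ki via Cheng-Prusoff (Kd 5.7 nM); 1.0 μM histamine set nonspecific binding.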

[2] = molecular target: human histamine H1 receptor (Homo sapiens, UniProt P35367); experiment: Evaluation of Human H1 Receptor Affinity ([3H]pyrilamine binding); set-up: purchased PerkinElmer Inc; host or cells: CHO-K1; conditions: inhibition constant Ki, CHO-K1 membrane preparation
How it was run: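 Ki values are Cheng-Prusoff conversions of IC50 (Kd 1.1 nM) from radioligand displacement of 1.2 nM [3H]pyrilamine, with 1.0 μM pyrilamine defining nonspecific binding.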

Chain of human histamine H1 receptor (P35367 whole entry): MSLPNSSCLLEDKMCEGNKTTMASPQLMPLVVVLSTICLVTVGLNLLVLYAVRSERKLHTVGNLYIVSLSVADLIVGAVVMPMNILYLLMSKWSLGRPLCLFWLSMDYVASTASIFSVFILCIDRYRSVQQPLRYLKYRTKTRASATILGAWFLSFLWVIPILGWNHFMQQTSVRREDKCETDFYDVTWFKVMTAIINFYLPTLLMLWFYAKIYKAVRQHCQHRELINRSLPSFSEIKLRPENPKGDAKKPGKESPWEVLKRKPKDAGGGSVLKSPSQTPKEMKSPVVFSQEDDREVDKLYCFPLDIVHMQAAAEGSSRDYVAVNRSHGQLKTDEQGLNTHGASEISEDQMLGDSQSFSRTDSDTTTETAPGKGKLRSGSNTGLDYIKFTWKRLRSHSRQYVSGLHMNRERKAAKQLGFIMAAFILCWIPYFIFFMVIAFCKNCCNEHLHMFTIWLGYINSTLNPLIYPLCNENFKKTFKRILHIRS

pKi [1]	pKi [2]	SMILES
6.30 to 7.00	> 7.00	CCS(=O)(=O)CCCN1CCN(c2nc(N)nc3c2CCc2cc(OCc4ccccc4)ccc2-3)CC1 [Example 107, 8-(benzyloxy)-4-(4-(3-(ethylsulfonyl)propyl)piperazin-1-yl)-5,6-dihydrobenzo[h]quinazolin-2-amine]
6.30 to 7.00	> 7.00	COC(=O)C1CN(C(=O)OCCN2CCN(c3nc(N)nc4c3CCc3cc(OCc5ccc(Cl)cc5)ccc3-4)CC2)C1 [Example 150, 1-(2-(4-(2-amino-8-((4-chlorobenzyl)oxy)-5,6-dihydrobenzo[h]quinazolin-4-yl)piperazin-1-yl)ethyl) 3-methyl azetidine-1,3-dicarboxylate]
6.30 to 7.00	6.30 to 7.00	CN1CCN(c2nc(N)nc3c2CCc2cc(NS(=O)(=O)Cc4ccccc4)ccc2-3)CC1 [Example 48, N-(2-amino-4-(4-methylpiperazin-1-yl)-5,6-dihydrobenzo[h]quinazolin-8-yl)-1-phenylmethanesulfonamide]
> 7.00	> 7.00	N#CCOCCOCCN1CCN(c2nc(N)nc3c2CCc2cc(OCc4ccc(Cl)cc4)ccc2-3)CC1 [Example 10, 2-(2-(2-(4-(2-amino-8-((4-chlorobenzyl)oxy)-5,6-dihydrobenzo[h]quinazolin-4-yl)piperazin-1-yl)ethoxy)ethoxy)acetonitrile]
6.30 to 7.00	> 7.00	CC1(C(=O)O)CC(OCCN2CCN(c3nc(N)nc4c3CCc3cc(OCc5ccc(OC(F)(F)F)cc5)ccc3-4)CC2)C1 (stereo not drawn) [Example 31, cis-3-(2-(4-(2-amino-8-((4-(trifluoromethoxy)benzyl)oxy)-5,6-dihydrobenzo[h]quinazolin-4-yl)piperazin-1-yl)ethoxy)-1-methylcyclobutane-1-carboxylic acid]
> 7.00	> 7.00	Nc1nc2c(c(N3CCN(CCOCC4CCCC(C(=O)O)C4)CC3)n1)CCc1cc(OCc3ccc(OC(F)(F)F)cc3)ccc1-2 (stereo not drawn) [Example 185, trans-3-((2-(4-(2-amino-8-((4-(trifluoromethoxy)benzyl)oxy)-5,6-dihydrobenzo[h]quinazolin-4-yl)piperazin-l-yl)ethoxy)methyl)cyclohexane-1-carboxylic acid dihydrochloride]
> 7.00	> 7.00	Cn1cc(COCCN2CCN(c3nc(N)nc4c3CCc3cc(OCc5ccc(Cl)cc5)ccc3-4)CC2)cc1C(=O)O [Example 156, 4-((2-(4-(2-amino-8-((4-chlorobenzyl)oxy)-5,6-dihydrobenzo[h]quinazolin-4-yl)piperazin-1-yl)ethoxy)methyl)-1-methyl-1H-pyrrole-2-carboxylic acid hydrochloride]
6.30 to 7.00	> 7.00	CS(=O)(=O)NC(=O)COCCOCCN1CCN(c2nc(N)nc3c2CCc2cc(OCc4ccc(Cl)cc4)ccc2-3)CC1 [Example 187, 2-(2-(2-(4-(2-amino-8-((4-chlorobenzyl)oxy)-5,6-dihydrobenzo[h]quinazolin-4-yl)piperazin-1-yl)ethoxy)ethoxy)-N-(methylsulfonyl)acetamide]
> 7.00	> 7.00	CN1CCN(c2nc(N)nc3c2CCc2cc(NS(=O)(=O)c4ccc(OCC(F)(F)F)cc4)ccc2-3)CC1 [Example 191, N-(2-amino-4-(4-methylpiperazin-1-yl)-5,6-dihydrobenzo[h]quinazolin-8-yl)-4-(2,2,2-trifluoroethoxy)benzenesulfonamide]
6.30 to 7.00	> 7.00	CCOC(=O)C1(C#N)CCC(COCCN2CCN(c3nc(N)nc4c3CCc3cc(OCc5ccc(Cl)cc5)ccc3-4)CC2)CC1 (stereo not drawn) [159(a), ethyl cis- or trans-4-((2-(4-(2-amino-8-((4-chlorobenzyl)oxy)-5,6-dihydrobenzo[h]quinazolin-4-yl)piperazin-1-yl)ethoxy)methyl)-1-cyanocyclohexane-1-carboxylate]
> 7.00	> 7.00	CNC(=O)COCCOCCN1CCN(c2nc(N)nc3c2CCc2cc(OCc4ccccc4)ccc2-3)CC1 [Example 108, 2-(2-(2-(4-(2-amino-8-(benzyloxy)-5,6-dihydrobenzo[h]quinazolin-4-yl)piperazin-1-yl)ethoxy)ethoxy)-N-methylacetamide]

The next lines start with the molecule.

SMILES	pKi [1]	pKi [2]
Nc1nc2c(c(N3CCN(CCO[C@H]4CC[C@@H](C(=O)O)CC4)CC3)n1)CCc1cc(OCc3ccc(Cl)cc3)ccc1-2 [Example 24, cis-4-(2-(4-(2-amino-8-((4-chlorobenzyl)oxy)-5,6-dihydrobenzo[h]quinazolin-4-yl)piperazin-1-yl)ethoxy)cyclohexane-1-carboxylic acid]	6.30 to 7.00	> 7.00
Nc1nc2c(c(N3CCN(CCO[C@@H]4C[C@@H]5[C@H](C4)[C@H]5C(=O)O)CC3)n1)CCc1cc(OCc3ccc(OC(F)(F)F)cc3)ccc1-2 [Example 147, (1R,3s,55,6r)-3-(2-(4-(2-amino-8-((4-(trifluoromethoxy)benzyl)oxy)-5,6-dihydrobenzo[h]quinazolin-4-yl)piperazin-1-yl)ethoxy)bicyclo[3.1.0]hexane-6-carboxylic acid]	> 7.00	> 7.00
CC(OCCCCN1CCN(c2nc(N)nc3c2CCc2cc(OCc4ccc(Cl)cc4)ccc2-3)CC1)C(=O)O (centres unmarked) [Example 123, 2-(4-(4-(2-amino-8-((4-chlorobenzyl)oxy)-5,6-dihydrobenzo[h]quinazolin-4-yl)piperazin-1-yl)butoxy)propanoic acid]	6.30 to 7.00	> 7.00
CN1CCN(c2nc(N)nc3c2CCc2cc(NS(=O)(=O)c4ccc(Cl)c(F)c4)ccc2-3)CC1 [Example 45, N-(2-amino-4-(4-methylpiperazin-1-yl)-5,6-dihydrobenzo[h]quinazolin-8-yl)-4-chloro-3-fluorobenzenesulfonamide]	6.30 to 7.00	> 7.00
CCOC(=O)c1csc(COCCN2CCN(c3nc(N)nc4c3CCc3cc(OCc5ccc(Cl)cc5)ccc3-4)CC2)n1 [135(a), ethyl 2-((2-(4-(2-amino-8-((4-chlorobenzyl)oxy)-5,6-dihydrobenzo[h]quinazolin-4-yl)piperazin-1-yl)ethoxy)methyl)thiazole-4-carboxylate]	> 7.00	> 7.00
Nc1nc2c(c(N3CCN(CCCCOCc4nnn[nH]4)CC3)n1)CCc1cc(OCc3ccc(Cl)cc3)ccc1-2 [Example 145, 4-(4-(4-((tetrazol-5-yl)methoxy)butyl)piperazin-1-yl)-8-((4-chlorobenzyl)oxy)-5,6-dihydrobenzo[h]quinazolin-2-amine bis(trifluoroacetate)]	> 7.00	> 7.00
CN1CCN(c2nc(N)nc3c2CCc2cc(NS(=O)(=O)CCCOc4ccccc4)ccc2-3)CC1 [Example 40, N-(2-amino-4-(4-methylpiperazin-1-yl)-5,6-dihydrobenzo[h]quinazolin-8-yl)-3-phenoxypropane-1-sulfonamide]	> 7.00	> 7.00
C[C@]1(C(=O)O)C[C@@H](OCCN2CCN(c3nc(N)nc4c3CCc3cc(OCc5ccc(Cl)cc5)ccc3-4)CC2)C1 [26(b), cis-3-(2-(4-(2-amino-8-((4-chlorobenzyl)oxy)-5,6-dihydrobenzo[h]quinazolin-4-yl)piperazin-1-yl)ethoxy)-1-methylcyclobutane-1-carboxylic acid]	6.30 to 7.00	> 7.00
Cc1cc(OC(F)(F)F)ccc1COc1ccc2c(c1)CCc1c-2nc(N)nc1N1CCN(CCO[C@H]2C[C@@H](C(=O)O)C2)CC1 [Example 208, cis-3-(2-(4-(2-amino-8-((2-methyl-4-(trifluoromethoxy)benzyl)oxy)-5,6-dihydrobenzo[h]quinazolin-4-yl)piperazin-1-yl)ethoxy)cyclobutane-1-carboxylic acid]	> 7.00	> 7.00
Nc1nc2c(c(N3CCN(CCOC[C@H]4CC[C@@H](C(=O)O)C4)CC3)n1)CCc1cc(OCc3ccc(Cl)cc3)ccc1-2 (relative stereo) [153(b), cis-3-((2-(4-(2-amino-8-((4-chlorobenzyl)oxy)-5,6-dihydrobenzo[h]quinazolin-4-yl)piperazin-1-yl)ethoxy)methyl)cyclopentane-l-carboxylic acid]	> 7.00	> 7.00
Nc1nc2c(c(N3CCN(CCO[C@H]4C[C@H](C(N)=O)C4)CC3)n1)CCc1cc(OCc3ccc(OC(F)(F)F)cc3)ccc1-2 [Example 34, trans-3-(2-(4-(2-amino-8-((4-(trifluoromethoxy)benzyl)oxy)-5,6-dihydrobenzo[h]quinazolin-4-yl)piperazin-1-yl)ethoxy)cyclobutane-1-carboxamide]	> 7.00	> 7.00
COc1cc(OC(F)(F)F)ccc1COc1ccc2c(c1)CCc1c-2nc(N)nc1N1CCN(CCO[C@H]2C[C@@H](C(=O)O)C2)CC1 [Example 207, cis-3-(2-(4-(2-amino-8-((2-methoxy-4-(trifluoromethoxy)benzyl)oxy)-5,6-dihydrobenzo[h]quinazolin-4-yl)piperazin-1-yl)ethoxy)cyclobutane-1-carboxylic acid]	> 7.00	> 7.00
Nc1nc2c(c(N3CCN(CCCCn4cc(C(=O)O)cn4)CC3)n1)CCc1cc(OCc3ccc(Cl)cc3)ccc1-2 [Example 132, 1-(4-(4-(2-amino-8-((4-chlorobenzyl)oxy)-5,6-dihydrobenzo[h]quinazolin-4-yl)piperazin-1-yl)butyl)-1H-pyrazole-4-carboxylic acid dihydrochloride]	6.30 to 7.00	> 7.00
CC(C)(C(=O)O)[C@H]1C[C@H](OCCN2CCN(c3nc(N)nc4c3CCc3cc(OCc5ccc(Cl)cc5)ccc3-4)CC2)C1 [Example 173, trans-2-(3-(2-(4-(2-amino-8-((4-chlorobenzyl)oxy)-5,6-dihydrobenzo[h]quinazolin-4-yl)piperazin-1-yl)ethoxy)cyclobutyl)-2-methylpropanoic acid]	> 7.00	> 7.00
